From US11098061B2 (Celgene CAR LLC, priority 2013, dated 2021)

Columns and labels:
[1] = target: p38a activated, mitogen-activated protein kinase-activated protein kinase 2 (MAPKAP-K2 or MK-2) enzyme (Homo sapiens (Human), UniProt P49137); assay: MK2 Omnia continuous-read kinase assay for compound potency; assay type: biochemical; conditions: [MK-2]=0.4 nM, [ATP]=1.0 mM, [ST3-Sox]=10 μM
In short: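 Continuous Omnia fluorescence read (λex360/λem485) every 71 s after starting with 0.4 nM MK-2, with 1.0 mM ATP (appKM 8-10 μM) and 10 μM ST3-Sox substrate.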

MK2 [2] = target: T1, MK2 (Homo sapiens (Human), UniProt P49137); assay: MK2 cellular assay (Hsp27 phosphorylation in Thp-1 cells); assay type: cell-based; conditions: differentiated Thp-1 cells, compound 1 hour, 50 ng/ml LPS 15 minutes, phosphorylation of Hsp27; read-out: MK2EC50
In short: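 PMA-differentiated (10 ng/ml, 2 days) human Thp-1 monocytic cells given compound for 1 h, washed, then stimulated with 50 ng/ml LPS for 15 min. Hsp27 phosphorylation measured by western blot of lysates (20 μg protein); EC50 from dose-response inhibition.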

MK2 [3] = target: T1, MK2; assay: MK2 target occupancy assay in Thp-1 cells with Covalent probe 2; assay type: cell-based; conditions: 1 μM test compound, 1 hour at 37° C.
Protocol: This experiment measured occupancy of the MK2 target by compounds according to the invention. Thp-1 cells (human acute monocytic leukemia) were grown in suspension in T225 flasks. Two days prior to assay, Thp-1 cells were spun down, counted and plated at 1×10^6 cells per well of a 12 well plate in compete media containing 10 ng/ml PMA (phorbol myristate acetate) to differentiate the cells. On day of assay, cells were washed with complete media, and a -test compound was added to cells at a concentration of 1 μM in complete media and incubated for 1 hour at 37° C. Cells were washed 1× with PBS and lysed on ice with BioRad Bioplex lysis buffer. The lysates were incubated with 1 μM biotinylated MK2 Covalent probe 2 at room temperature for 1 hour. 50 μg of total protein from lysates was loaded on gel and blots were probed for total MK2 with SC-100393 antibody and for probe with streptavidin-800. The amount of covalent probe signal divided by the amount of MK2 signal for samples with no test compound treatment represents the maximum probe signal (MPS). In samples treated with test compound prior to covalent probe, the ratio of probe signal to MK2 signal (the test probe signal, TPS) will be reduced by the degree of target occupancy by the test compound which blocks covalent probe binding. […] This ratio is then expressed as a percent occupancy.

MK2 [4] = target: T1, MK2; assay: MK2 modification assessment by whole protein mass spectrometry; assay type: binding; conditions: intact MK2, 60 min, 10-fold excess of compound to protein
In short: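 MK2 treated with compound is analysed intact by MALDI-TOF after C4 cleanup in sinapinic acid matrix. Percent modification is the centroid mass shift against control MK2 divided by compound mass.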

MK2 [5] = target: T1, MK2; assay: MK2 Thp-1 washout assay; assay type: cell-based; conditions: up to 6 hours after a 100 nM exposure (1 hour) and subsequent washout, Thp-1 cells
Protocol: Test compounds were assayed in Thp-1 human acute monocytic leukemia cells. Thp-1 were grown in suspension in T225 flasks. Two days prior to assay, Thp-1 cells were spun down, counted and plated at 1×10^6 cells per well of a 12 well plate in complete media containing 10 ng/ml PMA (phorbol myristate acetate) to differentiate the cells. […] Cells were thoroughly washed to remove the unbound test compound and placed back in the 37° C. tissue culture incubator for the washout period (0 h, 2 h, 6 h, or 16 h). After the washout, complete media containing 50 ng/ml LPS (lipopolysaccharide) was added for 15 minute stimulation, the cells were washed once with PBS, and protein lysates were prepared on ice with BioRad Bioplex lysis buffer. 20 μg total protein from each lysate was loaded on the gel and analyzed by SDS-PAGE. Western blots were probed for phosphorylation of the MK2 substrate Hsp27.

TNFα release [6] = assay: IV mouse PD experiment (TNFα release after LPS); assay type: in vivo; conditions: CD-1 male mice, less than 10 mg/kg IV, 1 hour prior to LPS
Protocol: CD-1 male mice, approximately 5 weeks old were acquired from Charles River Laboratories. Animals were housed in ventilated cages with a 12/12 light cycle and provided rodent chow and water ad libitum. Mice were acclimated at least 1 week prior to study initiation (approximately 6 weeks old). Five (5) mice per group were predosed with one of the following compounds: II-14, III-32, III-8, III-4, II-27 and III-40 (intravenously by lateral tail vein), 1 hour prior to LPS administration. LPS (E.Coli 055:B5 from Sigma, Cat #L2880) was diluted in 0.9% sterile saline (Webster Veterinary Supply, Cat #07-883-6734) to a final concentration of 30 μg/mL. Animals were administered 15 μg in 0.5 mL/mouse (approximately 0.5 mg/kg LPS) intraperitoneally. One hour post LPS administration, the mice were sacrificed via CO2 and whole blood was collected by cardiac puncture. Blood was placed in EDTA K2 tubes (Braintree Scientific, Cat #MT-1395), inverted 3 times and placed on wet ice until centrifugation at 4° C. Plasma was collected and stored on dry ice until stored at −80° C. until processing. TNFα levels were quantified using the “Mouse TNF-alpha Ultra-Sensitive Kit” from mesoscale.com (catalog number K152BHC-2) in conjunction with an MSD plate reader.

TNFα release [7] = assay: PO mouse PD experiment (TNFα release after LPS); assay type: in vivo; conditions: CD-1 male mice, 100 mg/kg PO, 1 hour prior to LPS, read-out: % Inhibition of TNFa

T1 sequence (P49137 whole entry): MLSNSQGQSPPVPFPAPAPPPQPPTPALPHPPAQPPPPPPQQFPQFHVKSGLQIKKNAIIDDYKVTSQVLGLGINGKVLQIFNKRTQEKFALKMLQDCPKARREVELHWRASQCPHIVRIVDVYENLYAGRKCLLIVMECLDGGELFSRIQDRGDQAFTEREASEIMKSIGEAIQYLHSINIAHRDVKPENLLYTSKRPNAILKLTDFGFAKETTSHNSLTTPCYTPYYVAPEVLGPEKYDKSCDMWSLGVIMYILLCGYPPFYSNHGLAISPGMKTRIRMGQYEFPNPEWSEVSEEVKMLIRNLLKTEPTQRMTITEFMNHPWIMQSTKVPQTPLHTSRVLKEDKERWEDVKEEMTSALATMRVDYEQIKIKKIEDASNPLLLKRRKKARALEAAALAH
Chain of p38a activated, mitogen-activated protein kinase-activated protein kinase 2 (MAPKAP-K2 or MK-2) enzyme (P49137 whole entry): as above

IC50 [1] [nM] | EC50 (MK2 [2]) [nM] | receptor occupancy at 1 µM (MK2 [3]) [%] | MK2 Mass Mod (MK2 [4]) | inhibition of p-hsp27 (phosphorylated hsp27) after washout (MK2 [5]) [%] | Compound | reduction in TNFα release compared to untreated control (TNFα release [6]) | inhibition in vivo at 100 mg/kg (TNFα release [7]) [%]
< 100 | < 100 | 95 | E (mass modification of ≥70%) | > 95 | C=CC(=O)Nc1cc(-c2cc3c(cn2)CCc2c-3[nH]c3c2C(=O)NC2(CC2)C3)ccc1OCCOC [II-11, N-(2-(2-methoxyethoxy)-5-(7′-oxo-5′,6′,7′,8′8′,1′,11′-hexahydrospiro[cyclopropane-1,9′-pyrido[3′,4′:4,5]pyrrolo[2,3-f]isoquinolin]-2′-yl)phenyl)acrylamide] | – | –
101 to 500 | < 100 | 92 | E (mass modification of ≥70%) | – | C=CC(=O)Nc1cc(-c2ccc3c(ccc4sc5c(c43)NC[C@@H](C)NC5=O)n2)ccc1OCCOC [III-8, (R)—N-(2-(2-methoxyethoxy)-5-(10-methyl-8-oxo-9,10,11,12-tetrahydro-8H-[1,4]diazepino[5′,6′:4,5]thieno[3,2-f]quinolin-3-yl)phenyl)acrylamide] | greater than 90% | 21 to 80
